Experimental data: PubChem BioAssay (NCI)
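Results reflect a 48-hour exposure of cells in 96-well plates to compound at five concentrations. GI50: concentration for 50% inhibition of growth. Definition used: TGI = concentration required for complete inhibition of growth.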

What was measured:
Assay in all cases: growth of human tumour cells (NCI), 48 h
[1] = tested on: SN12C renal
[2] = tested on: OVCAR-5 ovarian
[3] = tested on: COLO 205 colon
[4] = tested on: NCI-H522 lung
[5] = tested on: MDA-MB-435
[6] = tested on: RPMI-8226 leukemia
[7] = tested on: HOP-92 NSCLC
[8] = tested on: OVCAR-8 ovarian
[9] = tested on: SF-295 CNS
[10] = tested on: 786-0 renal
[11] = tested on: TK-10 renal
[12] = tested on: SW-620 colon
[13] = tested on: NCI-H23 lung
[14] = tested on: U251 CNS
[15] = tested on: MCF7 breast
[16] = tested on: T-47D breast
[17] = tested on: OVCAR-4 ovarian
[18] = tested on: KM12 colon
[19] = tested on: SNB-19 CNS
[20] = tested on: HT29 colon
[21] = tested on: A498 renal
[22] = tested on: HOP-62 NSCLC
[23] = tested on: HS 578T breast
[24] = tested on: NCI-H226 lung
[25] = tested on: A549 NSCLC
[26] = tested on: M14 melanoma
[27] = tested on: CCRF-CEM leukemia
[28] = tested on: SR leukemia
[29] = tested on: HCC-2998 colon
[30] = tested on: LOX IMVI melanoma
[31] = tested on: CAKI-1 renal
[32] = tested on: OVCAR-3 ovarian
[33] = tested on: NCI-H460 lung
[34] = tested on: SNB-75 CNS
[35] = tested on: K-562 leukemia
[36] = tested on: UO-31 renal
[37] = tested on: MALME-3M melanoma
[38] = tested on: SK-MEL-5 melanoma
[39] = tested on: ACHN renal
[40] = tested on: SF-268 CNS
[41] = tested on: BT-549 breast
[42] = tested on: MDA-MB-231 breast
[43] = tested on: SK-OV-3 ovarian
[44] = tested on: MOLT-4 leukemia
[45] = tested on: SF-539 CNS
[46] = tested on: UACC-257 melanoma
[47] = tested on: EKVX NSCLC
[48] = tested on: PC-3 prostate
[49] = tested on: SK-MEL-2 melanoma
[50] = tested on: RXF 393 renal
[51] = tested on: SK-MEL-28 melanoma
[52] = tested on: UACC-62 melanoma
[53] = tested on: IGROV1 ovarian
[54] = tested on: NCI/ADR-RES ovarian
[55] = tested on: HCT-15 colon
[56] = tested on: HCT-116 colon
[57] = tested on: DU-145 prostate
[58] = tested on: HL-60(TB) leukemia

## O=S(=O)(NC1CC2CCC1C2)c1ccc2c(c1)C(=NO)c1cc(S(=O)(=O)NC3CC4CCC3C4)ccc1-2 (stereo not given)
[1]
  GI50: 0.883 µM
  TGI: 25.8 µM
[2]
  GI50: 0.453 µM
  TGI: 40.5 µM
[3]
  GI50: 23.3 µM
  TGI: > 100 µM
[4]
  GI50: 0.16 µM
  TGI: 1.02 µM
[5]
  GI50: 1.86 µM
  TGI: > 100 µM
[6]
  GI50: 0.238 µM
  TGI: > 100 µM
[7]
  GI50: 0.152 µM
  TGI: 0.426 µM
[8]
  GI50: 0.139 µM
  TGI: 2.29 µM
[9]
  GI50: 2.31 µM
  TGI: 8.91 µM
[10]
  GI50: 0.179 µM
  TGI: 0.326 µM
[11]
  GI50: 3.1 µM
[12]
  GI50: 0.527 µM
  TGI: 3.87 µM
[13]
  GI50: 0.0394 µM
  TGI: 0.182 µM
[14]
  GI50: 0.371 µM
  TGI: 3.67 µM
[15]
  GI50: 0.51 µM
  TGI: > 100 µM
[16]
  GI50: 1.27 µM
  TGI: 5.57 µM
[17]
  GI50: 0.677 µM
  TGI: 3.37 µM
[18]
  GI50: 0.162 µM
[19]
  GI50: 28.9 µM
  TGI: > 100 µM
[20]
  GI50: 0.22 µM
  TGI: 3.01 µM
[21]
  GI50: > 100 µM
  TGI: > 100 µM
[22]
  GI50: 0.268 µM
  TGI: 4.95 µM
[23]
  GI50: 31.6 µM
  TGI: > 100 µM
[24]
  GI50: 22.2 µM
  TGI: > 100 µM
[25]
  GI50: 1.83 µM
  TGI: 22.4 µM
[26]
  GI50: 4.42 µM
  TGI: > 100 µM
[27]
  GI50: 0.0257 µM
  TGI: 0.0726 µM
[28]
  GI50: 0.0179 µM
  TGI: 0.0563 µM
[29]
  GI50: 3.75 µM
  TGI: > 100 µM
[30]
  GI50: 0.0182 µM
  TGI: 0.0371 µM
[31]
  GI50: 0.158 µM
  TGI: 0.344 µM
[32]
  GI50: 0.598 µM
  TGI: > 100 µM
[33]
  GI50: 0.437 µM
  TGI: 14.2 µM
[34]
  TGI: > 100 µM
[35]
  GI50: 0.444 µM
  TGI: > 100 µM
[36]
  GI50: 0.0186 µM
  TGI: 0.0376 µM
[37]
  GI50: 0.0438 µM
  TGI: 0.173 µM
[38]
  GI50: > 100 µM
  TGI: > 100 µM
[39]
  GI50: 0.0742 µM
  TGI: 0.986 µM
[40]
  GI50: 2.38 µM
  TGI: 99.5 µM
[41]
  GI50: 1.92 µM
  TGI: > 100 µM
[42]
  GI50: 0.106 µM
  TGI: 3.13 µM
[43]
  GI50: 23.2 µM
  TGI: > 86.7 µM
[44]
  GI50: 13.3 µM
  TGI: > 100 µM
[45]
  GI50: 0.182 µM
  TGI: 0.396 µM
[46]
  GI50: > 100 µM
  TGI: > 100 µM
[47]
  GI50: 0.0521 µM
  TGI: 0.201 µM
[48]
  GI50: 1.86 µM
  TGI: 18.3 µM
[49]
  GI50: 66.7 µM
  TGI: > 100 µM
[50]
  GI50: 0.292 µM
  TGI: 30.2 µM
[51]
  GI50: 60.2 µM
  TGI: > 100 µM
[52]
  GI50: 36 µM
  TGI: > 100 µM
[53]
  GI50: 0.0262 µM
  TGI: 0.132 µM
[54]
  GI50: 7 µM
  TGI: > 100 µM
[55]
  GI50: 0.592 µM
  TGI: > 100 µM
[56]
  GI50: 0.655 µM
  TGI: > 100 µM
[57]
  GI50: 0.348 µM
  TGI: 8.8 µM

## O=C(CCCCCCNC(=O)C(O)(O)C(F)(F)F)Nc1ccc(-c2ccccc2)cc1
[1]
  GI50: 4.21 µM
  TGI: 16 µM
[2]
  GI50: 1.62 µM
  TGI: 9.14 µM
[3]
  GI50: 4.03 µM
  TGI: 11.8 µM
[4]
  GI50: 3.81 µM
  TGI: 20.5 µM
[5]
  GI50: 3.55 µM
  TGI: 32.4 µM
[6]
  GI50: 2.32 µM
  TGI: > 33.2 µM
[7]
  GI50: 0.74 µM
  TGI: 4.18 µM
[8]
  GI50: 3.25 µM
  TGI: > 33.2 µM
[9]
  GI50: 2.53 µM
  TGI: 7.49 µM
[10]
  GI50: 4.34 µM
  TGI: 11.7 µM
[11]
  GI50: 1.63 µM
  TGI: > 33.2 µM
[12]
  GI50: 1.8 µM
  TGI: 7.24 µM
[13]
  GI50: 4.28 µM
  TGI: 13.6 µM
[14]
  GI50: 3.62 µM
  TGI: 10.9 µM
[15]
  GI50: 5.57 µM
  TGI: 30 µM
[16]
  GI50: 2.96 µM
  TGI: 25.3 µM
[17]
  GI50: 11 µM
  TGI: > 33.2 µM
[18]
  GI50: 3.84 µM
  TGI: 9.23 µM
[19]
  GI50: 4.63 µM
  TGI: 10.3 µM
[20]
  GI50: 3.77 µM
  TGI: > 33.2 µM
[21]
  GI50: 0.7 µM
  TGI: 6.41 µM
[22]
  GI50: 4.76 µM
  TGI: 29.4 µM
[23]
  GI50: 4.15 µM
  TGI: 25.3 µM
[24]
  GI50: 7.55 µM
  TGI: 26.6 µM
[25]
  GI50: 6.04 µM
  TGI: 28.8 µM
[26]
  GI50: 3.82 µM
  TGI: 12.5 µM
[27]
  GI50: 1.84 µM
  TGI: > 33.2 µM
[28]
  GI50: 1.43 µM
  TGI: > 33.2 µM
[58]
  GI50: 2.64 µM
  TGI: > 33.2 µM
[29]
  GI50: 4.91 µM
  TGI: 9.88 µM
[30]
  GI50: 1.96 µM
  TGI: 6.29 µM
[31]
  GI50: 5.74 µM
  TGI: 17.5 µM
[32]
  GI50: 3.39 µM
  TGI: 8.2 µM
[33]
  GI50: 3.24 µM
  TGI: 11.4 µM
[34]
  GI50: 2.92 µM
  TGI: > 33.2 µM
[35]
  GI50: 1.58 µM
  TGI: > 33.2 µM
[36]
  GI50: 3.11 µM
  TGI: 8.88 µM
[37]
  GI50: 1.6 µM
  TGI: 10.2 µM
[38]
  GI50: 1.94 µM
  TGI: 6.27 µM
[39]
  GI50: 2.85 µM
  TGI: 9.22 µM
[40]
  GI50: 5.98 µM
  TGI: 14.3 µM
[41]
  GI50: 4.21 µM
  TGI: 13.2 µM
[42]
  GI50: 2.84 µM
  TGI: 10.7 µM
[43]
  GI50: 4.31 µM
  TGI: 21.6 µM
[44]
  GI50: 1.32 µM
  TGI: > 33.2 µM
[45]
  GI50: 4.61 µM
  TGI: 13 µM
[46]
  GI50: 4.67 µM
  TGI: 14.5 µM
[47]
  GI50: 5.26 µM
  TGI: > 33.2 µM
[48]
  GI50: 3.78 µM
  TGI: 19 µM
[49]
  GI50: 3.31 µM
  TGI: 8.97 µM
[51]
  GI50: 2.09 µM
  TGI: 8.52 µM
[52]
  GI50: 1.31 µM
  TGI: 5.39 µM
[53]
  GI50: 3.9 µM
  TGI: 10.6 µM
[54]
  GI50: 3.99 µM
  TGI: 12.4 µM
[55]
  GI50: 4.73 µM
  TGI: 9.8 µM
[56]
  GI50: 1.27 µM
  TGI: 7.08 µM
[57]
  GI50: 4.78 µM
  TGI: 32.7 µM
